Data reported in US11649255B2, “Indazoles as hematopoietic progenitor kinase 1 (HPK1) inhibitors and methods using same” (1st Biotherapeutics, Inc., priority 2020, dated 2023).

Target: recombinant human HPK1 (Homo sapiens (Human), UniProt Q92918)
Assay: HPK1 kinase assay (ADP-Glo)
Format: biochemical
Settings: 25 μM ATP, MBP substrate
Method in brief: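 Activity was read as ADP formed, detected by ADP-Glo luminescence after the reaction of 5 ng recombinant human HPK1 with MBP and ATP (stocks 0.5 μg/μl and 25 μM) for 40 min at 30 °C. Buffer was Tris pH 7.5 with MgCl2, BSA and DTT, with compound in 0.5% DMSO. IC50 came from inhibition curves.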

recombinant human HPK1, sequence (Q92918 whole entry): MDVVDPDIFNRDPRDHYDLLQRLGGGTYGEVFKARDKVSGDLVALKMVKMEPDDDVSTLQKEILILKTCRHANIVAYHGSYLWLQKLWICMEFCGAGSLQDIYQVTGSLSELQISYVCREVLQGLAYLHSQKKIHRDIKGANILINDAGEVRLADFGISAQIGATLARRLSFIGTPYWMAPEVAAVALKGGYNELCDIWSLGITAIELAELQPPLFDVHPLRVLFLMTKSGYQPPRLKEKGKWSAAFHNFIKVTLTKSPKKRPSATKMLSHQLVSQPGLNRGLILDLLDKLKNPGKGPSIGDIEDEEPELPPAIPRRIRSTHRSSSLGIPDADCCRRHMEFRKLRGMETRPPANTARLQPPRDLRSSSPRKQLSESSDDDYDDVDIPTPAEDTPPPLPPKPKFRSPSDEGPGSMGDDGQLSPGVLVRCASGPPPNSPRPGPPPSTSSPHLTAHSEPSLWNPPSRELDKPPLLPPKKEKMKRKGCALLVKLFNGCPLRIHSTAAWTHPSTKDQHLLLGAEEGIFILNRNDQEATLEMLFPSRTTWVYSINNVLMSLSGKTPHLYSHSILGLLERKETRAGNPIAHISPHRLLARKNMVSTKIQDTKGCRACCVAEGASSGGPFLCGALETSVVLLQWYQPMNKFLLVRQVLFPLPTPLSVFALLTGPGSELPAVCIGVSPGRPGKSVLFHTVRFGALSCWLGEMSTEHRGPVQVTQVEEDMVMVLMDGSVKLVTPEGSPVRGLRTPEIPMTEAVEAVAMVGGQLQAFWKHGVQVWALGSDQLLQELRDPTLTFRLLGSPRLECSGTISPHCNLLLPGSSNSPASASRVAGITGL

| SMILES | IC50 |
| --- | --- |
| O=C(Nc1cn2cc(-c3c(C(F)F)ccc4[nH]ncc34)ccc2n1)C1CC1 [Example 249, N-(6-(5-(difluoromethyl)-1H-indazol-4-yl)imidazo[1,2-a]pyridin-2-yl)cyclopropanecarboxamide] | 0.101 to 0.5 µM |
| O=C(Nc1cn2cc(-c3c(CO)c(F)cc4[nH]ncc34)ccc2n1)C1CC1 [Example 251, N-(6-(6-fluoro-5-(hydroxymethyl)-1H-indazol-4-yl)imidazo[1,2-a]pyridin-2-yl)cyclopropanecarboxamide] | > 1 µM |
| CP(C)(=O)c1c(F)c(Cl)c(-c2ccc3nc(NC(=O)[C@@H]4C[C@@H]4F)cn3c2)c2cn[nH]c12 [Example 259, (1S,2S)-N-(6-(5-chloro-7-(dimethylphosphoryl)-6-fluoro-1H-indazol-4-yl)imidazo[1,2-a]pyridin-2-yl)-2-fluorocyclopropane-1-carboxamide] | > 1 µM |
| CNc1c(F)c(Cl)c(-c2ccc3nc(NC(=O)[C@@H]4C[C@@H]4F)cn3c2)c2cn[nH]c12 [Example 265, (1S,2S)-N-(6-(5-chloro-6-fluoro-7-(methylamino)-1H-indazol-4-yl)imidazo[1,2-a]pyridin-2-yl)-2-fluorocyclopropane-1-carboxamide] | < 0.1 µM |
| CSc1c(F)c(Cl)c(-c2ccc3nc(NC(=O)[C@@H]4C[C@@H]4F)cn3c2)c2cn[nH]c12 [Example 266, (1S,2S)-N-(6-(5-chloro-6-fluoro-7-(methylthio)-1H-indazol-4-yl)imidazo[1,2-a]pyridin-2-yl)-2-fluorocyclopropane-1-carboxamide] | < 0.1 µM |
| CS(=O)(=O)c1c(F)c(Cl)c(-c2ccc3nc(NC(=O)[C@@H]4C[C@@H]4F)cn3c2)c2cn[nH]c12 [Example 267, (1S,2S)-N-(6-(5-chloro-6-fluoro-7-(methylsulfonyl)-1H-indazol-4-yl)imidazo[1,2-a]pyridin-2-yl)-2-fluorocyclopropane-1-carboxamide] | 0.101 to 0.5 µM |
| Cc1c(F)c(Br)c2[nH]ncc2c1-c1ccc2nc(NC(=O)[C@@H]3C[C@@H]3F)cn2c1 [Example 268, (1S,2S)-N-(6-(7-bromo-6-fluoro-5-methyl-1H-indazol-4-yl)imidazo[1,2-a]pyridin-2-yl)-2-fluorocyclopropane-1-carboxamide] | < 0.1 µM |
| CSc1c(F)c(C)c(-c2ccc3nc(NC(=O)[C@@H]4C[C@@H]4F)cn3c2)c2cn[nH]c12 [Example 269, (1S,2S)-2-fluoro-N-(6-(6-fluoro-5-methyl-7-(methylthio)-1H-indazol-4-yl)imidazo[1,2-a]pyridin-2-yl)cyclopropane-1-carboxamide] | < 0.1 µM |
| Cc1c(F)c(S(C)(=O)=O)c2[nH]ncc2c1-c1ccc2nc(NC(=O)[C@@H]3C[C@@H]3F)cn2c1 [Example 270, (1S,2S)-2-fluoro-N-(6-(6-fluoro-5-methyl-7-(methylsulfonyl)-1H-indazol-4-yl)imidazo[1,2-a]pyridin-2-yl)cyclopropane-1-carboxamide] | 0.101 to 0.5 µM |
| COc1c(F)c(C)c(-c2ccc3nc(NC(=O)[C@@H]4C[C@@H]4F)cn3c2)c2cn[nH]c12 [Example 271, (1S,2S)-2-fluoro-N-(6-(6-fluoro-7-methoxy-5-methyl-1H-indazol-4-yl)imidazo[1,2-a]pyridin-2-yl)cyclopropane-1-carboxamide] | < 0.1 µM |
| COc1c(F)c(Cl)c(-c2ccc3nc(NC(=O)[C@@H]4C[C@@H]4F)cn3c2)c2cn[nH]c12 [Example 272, (1S,2S)-N-(6-(5-chloro-6-fluoro-7-methoxy-1H-indazol-4-yl)imidazo[1,2-a]pyridin-2-yl)-2-fluorocyclopropane-1-carboxamide] | < 0.1 µM |
| Cc1c(F)c(N(C)C)c2[nH]ncc2c1-c1ccc2nc(NC(=O)[C@@H]3C[C@@H]3F)cn2c1 [Example 273, (1S,2S)-N-(6-(7-(dimethylamino)-6-fluoro-5-methyl-1H-indazol-4-yl)imidazo[1,2-a]pyridin-2-yl)-2-fluorocyclopropane-1-carboxamide] | < 0.1 µM |
| C=CC(=O)Nc1cc(C)c(-c2ccc3nc(NC(=O)[C@@H]4C[C@@H]4F)cn3c2)c2cn[nH]c12 [Example 274, (1S,2S)-N-(6-(7-acrylamido-5-methyl-1H-indazol-4-yl)imidazo[1,2-a]pyridin-2-yl)-2-fluorocyclopropane-1-carboxamide] | < 0.1 µM |
| CCOc1c(F)c(Cl)c(-c2ccc3nc(NC(=O)[C@@H]4C[C@@H]4F)cn3c2)c2cn[nH]c12 [Example 275, (1S,2S)-N-(6-(5-chloro-7-ethoxy-6-fluoro-1H-indazol-4-yl)imidazo[1,2-a]pyridin-2-yl)-2-fluorocyclopropane-1-carboxamide] | < 0.1 µM |
| C=CC(=O)Nc1cc(Cl)c(-c2ccc3nc(NC(=O)[C@@H]4C[C@@H]4F)cn3c2)c2cn[nH]c12 [Example 276, (1S,2S)-N-(6-(7-acrylamido-5-chloro-1H-indazol-4-yl)imidazo[1,2-a]pyridin-2-yl)-2-fluorocyclopropane-1-carboxamide] | < 0.1 µM |
| CN1CCN(c2c(F)c(Cl)c(-c3ccc4nc(NC(=O)[C@@H]5C[C@@H]5F)cn4c3)c3cn[nH]c23)CC1 [Example 277, (1S,2S)-N-(6-(5-chloro-6-fluoro-7-(4-methylpiperazin-1-yl)-1H-indazol-4-yl)imidazo[1,2-a]pyridin-2-yl)-2-fluorocyclopropane-1-carboxamide] | 0.101 to 0.5 µM |
| Cc1ccc2[nH]ncc2c1-c1ccc2nc(NC(=O)C3CC3CO)cn2c1 (centres unmarked) [Example 278, 2-(hydroxymethyl)-N-(6-(5-methyl-1H-indazol-4-yl)imidazo[1,2-a]pyridin-2-yl)cyclopropane-1-carboxamide] | > 1 µM |

Second part, the molecule after the results:

| IC50 | SMILES |
| --- | --- |
| < 0.1 µM | Cc1c(F)cc2[nH]ncc2c1-c1ccc2nc(NC(=O)C3CC3)cn2c1 [Example 245, N-(6-(6-fluoro-5-methyl-1H-indazol-4-yl)imidazo[1,2-a]pyridin-2-yl)cyclopropanecarboxamide] |
| < 0.1 µM | CC(C)c1c(F)cc2[nH]ncc2c1-c1ccc2nc(NC(=O)C3CC3)cn2c1 [Example 246, N-(6-(6-fluoro-5-isopropyl-1H-indazol-4-yl)imidazo[1,2-a]pyridin-2-yl)cyclopropanecarboxamide] |
| < 0.1 µM | CSc1ccc2[nH]ncc2c1-c1ccc2nc(NC(=O)C3CC3)cn2c1 [Example 247, N-(6-(5-(methylthio)-1H-indazol-4-yl)imidazo[1,2-a]pyridin-2-yl)cyclopropanecarboxamide] |
| < 0.1 µM | CCc1c(F)cc2[nH]ncc2c1-c1ccc2nc(NC(=O)C3CC3)cn2c1 [Example 248, N-(6-(5-ethyl-6-fluoro-1H-indazol-4-yl)imidazo[1,2-a]pyridin-2-yl)cyclopropanecarboxamide] |
| < 0.1 µM | Cc1c(F)cc2[nH]ncc2c1-c1ccc2nc(NC(=O)[C@@H]3C[C@@H]3F)cn2c1 [Example 250, (1S,2S)-2-fluoro-N-(6-(6-fluoro-5-methyl-1H-indazol-4-yl)imidazo[1,2-a]pyridin-2-yl)cyclopropane-1-carboxamide] |
| < 0.1 µM | COc1c(F)cc2[nH]ncc2c1-c1ccc2nc(NC(=O)C3CC3)cn2c1 [Example 252, N-(6-(6-fluoro-5-methoxy-1H-indazol-4-yl)imidazo[1,2-a]pyridin-2-yl)cyclopropanecarboxamide] |
| < 0.1 µM | O=C(Nc1cn2cc(-c3c(C(F)F)c(F)cc4[nH]ncc34)ccc2n1)[C@@H]1C[C@@H]1F [Example 253, (1S,2S)-N-(6-(5-(difluoromethyl)-6-fluoro-1H-indazol-4-yl)imidazo[1,2-a]pyridin-2-yl)-2-fluorocyclopropane-1-carboxamide] |
| < 0.1 µM | O=C(Nc1cn2cc(-c3c(C(F)F)c(F)cc4[nH]ncc34)ccc2n1)C1CC1 [Example 255, N-(6-(5-(difluoromethyl)-6-fluoro-1H-indazol-4-yl)imidazo[1,2-a]pyridin-2-yl)cyclopropanecarboxamide] |
| < 0.1 µM | O=C(Nc1cn2cc(-c3c(Cl)c(F)c(Cl)c4[nH]ncc34)ccc2n1)[C@@H]1C[C@@H]1F [Example 256, (1S,2S)-N-(6-(5,7-dichloro-6-fluoro-1H-indazol-4-yl)imidazo[1,2-a]pyridin-2-yl)-2-fluorocyclopropane-1-carboxamide] |
| < 0.1 µM | Cc1c(F)c(C)c2[nH]ncc2c1-c1ccc2nc(NC(=O)[C@@H]3C[C@@H]3F)cn2c1 [Example 257, (1S,2S)-2-fluoro-N-(6-(6-fluoro-5,7-dimethyl-1H-indazol-4-yl)imidazo[1,2-a]pyridin-2-yl)cyclopropane-1-carboxamide] |
| < 0.1 µM | Cc1c(F)c(Cl)c2[nH]ncc2c1-c1ccc2nc(NC(=O)[C@@H]3C[C@@H]3F)cn2c1 [Example 260, (1S,2S)-N-(6-(7-chloro-6-fluoro-5-methyl-1H-indazol-4-yl)imidazo[1,2-a]pyridin-2-yl)-2-fluorocyclopropane-1-carboxamide] |
| < 0.1 µM | O=C(Nc1cn2cc(-c3c(Cl)c(F)c(Br)c4[nH]ncc34)ccc2n1)[C@@H]1C[C@@H]1F [Example 261, (1S,2S)-N-(6-(7-bromo-5-chloro-6-fluoro-1H-indazol-4-yl)imidazo[1,2-a]pyridin-2-yl)-2-fluorocyclopropane-1-carboxamide] |
| < 0.1 µM | Cc1c(F)c(F)c2[nH]ncc2c1-c1ccc2nc(NC(=O)[C@@H]3C[C@@H]3F)cn2c1 [Example 262, (1S,2S)-N-(6-(6,7-difluoro-5-methyl-1H-indazol-4-yl)imidazo[1,2-a]pyridin-2-yl)-2-fluorocyclopropane-1-carboxamide] |
| < 0.1 µM | Cc1c(F)c(C(F)(F)F)c2[nH]ncc2c1-c1ccc2nc(NC(=O)[C@@H]3C[C@@H]3F)cn2c1 [Example 263, (1S,2S)-2-fluoro-N-(6-(6-fluoro-5-methyl-7-(trifluoromethyl)-1H-indazol-4-yl)imidazo[1,2-a]pyridin-2-yl)cyclopropane-1-carboxamide] |
| < 0.1 µM | C=Cc1cc(C)c(-c2ccc3nc(NC(=O)[C@@H]4C[C@@H]4F)cn3c2)c2cn[nH]c12 [Example 264, (1S,2S)-2-fluoro-N-(6-(5-methyl-7-vinyl-1H-indazol-4-yl)imidazo[1,2-a]pyridin-2-yl)cyclopropane-1-carboxamide] |
